Where two headings read alike, the source gives them in different places.
Key:
P. falciparum NF54 = assay: In vitro microplate 3H-hypoxanthine incorporation assay against P. falciparum NF54; type: cell-based; conditions: Plasmodium falciparum
Description: (§1) Compounds were tested for their activities against Plasmodium falciparum NF54 (sensitive to chloroquine) and Trypanosoma brucei rhodesiense STIB900, via serial dilution assays. Furthermore, selected compounds were tested against the K1 strain of Plasmodium falciparum (resistant against chloroquine, sulfadoxine and pyrimethamine). Their cytotoxicity was determined with rat skeletal myoblasts (L-6 cells).
(§2) In vitro activity against erythrocytic stages of P. falciparum was determined using a ^3H-hypoxanthine incorporation assay using the drug sensitive NF54 strain [27] or the chloroquine- and pyrimethamine-resistant K1 strain [28]. Compounds were dissolved in DMSO at 10 mg/mL and further diluted in medium before being added to parasite cultures incubated in RPMI 1640 medium without hypoxanthine, supplemented with HEPES (5.94 g/L), NaHCO3 (2.1 g/L), neomycin (100 U/mL), Albumax® (5 g/L) and washed human red cells A+ at 2.5% haematocrit (0.3% parasitaemia). Serial drug dilutions of eleven 3-fold dilution steps covering a range from 100 to 0.002 μg/mL were prepared. The 96-well plates were incubated in a humidified atmosphere at 37 °C; 4% CO2, 3% O2, 93% N2. After 48 h, 0.05 mL of ^3H-hypoxanthine (= 0.5 μCi) was added to each well of the plate. The plates were incubated for a further 24 h under the same conditions. The plates were then harvested with a Betaplate™ cell harvester (Wallac, Zurich, Switzerland), and the red blood cells transferred onto a glass fibre filter then washed with distilled water. The dried filters were inserted into a plastic foil with 10 mL of scintillation fluid, and counted in a Betaplate™ liquid scintillation counter (Wallac, Zurich, Switzerland). IC50 values were calculated from sigmoidal inhibition curves by linear regression using Microsoft Excel. Chloroquine (Sigma C6628) was used as control.

P. falciparum K1 = assay: In vitro microplate 3H-hypoxanthine incorporation assay against P. falciparum K1; type: cell-based, Plasmodium falciparum
Description: as §1, §2

[1] = In vitro cytotoxicity with L-6 cells; conditions: rat
Description: as §1
Assays were performed in 96-well microtiter plates, each well containing 0.1 mL of RPMI 1640 medium supplemented with 1% L-glutamine (200 mM) and 10% fetal bovine serum, and 4000 L-6 cells (a primary cell line derived from rat skeletal myoblasts, ATCC CRL-1458™). Serial drug dilutions of eleven 3-fold dilution steps covering a range from 100 to 0.002 μg/mL were prepared. After 70 h of incubation the plates were inspected under an inverted microscope to assure growth of the controls and sterile conditions. Then, 0.01 mL resazurin solution (resazurin, 12.5 mg in 100 mL double-distilled water) was added to each well and the plates incubated for another 2 h. The plates were read with a Spectramax Gemini XS microplate fluorometer (Molecular Devices Cooperation, Sunnyvale, CA, USA) using an excitation wave length of 536 nm and an emission wave length of 588 nm. The IC50 values were calculated by linear regression from the sigmoidal dose inhibition curves using SoftmaxPro software (Molecular Devices Cooperation, Sunnyvale, CA, USA). Podophyllotoxin (Sigma P4405) was used as control.

[2] = system: T. brucei rhodesiense STIB900; assay: In vitro microplate resazurin assay against T. brucei rhodesiense; type: cell-based; conditions: Trypanosoma brucei, read-out: T. brucei rhodesiense STIB900 IC50
Description: as §1
Minimum essential medium (50 µL) supplemented with 25 mM HEPES, 1g/L additional glucose, 1% MEM non-essential amino acids (100×), 0.2 mM 2-mercaptoethanol, 1mM Na-pyruvate and 15% heat-inactivated horse serum was added to each well of a 96-well microtiter plate. Serial drug dilutions of eleven 3-fold dilution steps covering a range from 100 to 0.002 μg/mL were prepared. Then 4 × 10^3 bloodstream forms of T. b. rhodesiense STIB 900 in 50 µL was added to each well and the plate incubated at 37 °C under a 5 % CO2 atmosphere for 70 h. Next, 10 µL resazurin solution (resazurin, 12.5 mg in 100 mL double-distilled water) was added to each well and incubation continued for a further 2–4 h. Then the plates were read with a Spectramax Gemini XS microplate fluorometer (Molecular Devices Cooperation, Sunnyvale, CA, USA) using an excitation wave length of 536 nm and an emission wave length of 588 nm. Data were analyzed with the graphic programme Softmax Pro (Molecular Devices Cooperation, Sunnyvale, CA, USA), which calculated IC50 values by linear regression and 4-parameter logistic regression from the sigmoidal dose inhibition curves. Melarsoprol (Arsobal Sanofi-Aventis, received from WHO) was used as control.

[3] = bloodstream forms, average of four determinations
[4] = NF54 strain, sensitive to chloroquine and pyrimethamine, average of four determinations, read-out: P. falciparum NF54 IC50
[5] = Plasmodium falciparum, K1, K1 strain, resistant to chloroquine, sulfadoxine and pyrimethamine, average of four determinations, read-out: P. falciparum K1 IC50
[6] = K1 strain, resistant to chloroquine, sulfadoxine and pyrimethamine, average of four determinations, read-out: P. falciparum K1 IC50

Row | Structure (SMILES) | IC50 [2, 3] [nM] | IC50 (P. falciparum NF54; [4]) [nM] | IC50 (P. falciparum NF54; NF54, read-out: P. falciparum NF54 IC50) [nM] | IC50 (P. falciparum K1; Plasmodium falciparum, K1, read-out: P. falciparum K1 IC50) [nM] | IC50 at 72 h [1] [µM] | IC50 (P. falciparum K1; [5]) [nM] | IC50 (P. falciparum K1; [6]) [nM] | IC50 [2] [nM]
1 | CCN(CC)CCCC(C)Nc1ccnc2cc(Cl)ccc12 (stereo not shown) [CQ, chloroquine, reference compound] |  |  | 3.9 | 163 | 90.9 |  |  | 
2 | Cc1cc(N2CC3C(c4ccccc4)CC(N4CCCCC4)(CC3c3ccccc3)C2)nc(N)n1 (racemic) [Compound 7] | 573 ± 132 | 24 ± 4 |  |  | 8 ± 1.89 | 51 to 94 | 51 ± 24 | 
3 | Nc1nc(N)nc(Nc2ccc([As]3SCC(CO)S3)cc2)n1 (stereo not shown) [MEL, melarsoprol, reference compound] |  |  |  |  | 7.78 |  |  | 10
4 | Cc1cc(N2CC3C(c4ccccc4)CC(N4CCCC4)(CC3c3ccccc3)C2)nc(N2CCCC2)n1 (racemic) [Compound 20, rac-(7R,8R)-3-[6-methyl-2-(pyrrolidin-1-yl)pyrimidin-4-yl]-6,9-diphenyl-1-(pyrrolidin-1-yl)-3-azabicyclo[3.2.2]nonane] | 764 ± 335 | 87 ± 59 |  |  | 4.16 ± 0.039 | 87 ± 47 |  | 
5 | Cc1cc(N2CC3C(c4ccccc4)CC(N4CCCC4)(CC3c3ccccc3)C2)nc(N)n1 (racemic) [Compound 8] | 322 ± 151 | 62 ± 1 |  |  | 4.48 ± 1.44 |  |  | 
6 | Nc1cc(N2CC3C(c4ccccc4)CC(N4CCCCC4)(CC3c3ccccc3)C2)nc(N)n1 (racemic) [Compound 11] | 201 ± 39 | 23 ± 1 |  |  | 4.33 ± 0.235 | 87 ± 2 |  | 
7 | Cc1cc(N2CC3C(c4ccccc4)CC(N4CCCC4)(CC3c3ccccc3)C2)nc(N2CCCCC2)n1 (racemic) [Compound 24, rac-(7R,8R)-3-[6-methyl-2-(piperidin-1-yl)pyrimidin-4-yl]-6,9-diphenyl-1-(pyrrolidin-1-yl)-3-azabicyclo[3.2.2]nonane] | 1450 ± 116 | 3790 ± 163 |  |  | 61.8 ± 27.9 |  |  | 
8 | Cc1cc(N2CC3C(c4ccccc4)CC(N4CCCCC4)(CC3c3ccccc3)C2)nc(N2CCCCC2)n1 (racemic) [Compound 23, rac-(7R,8R)-3-[6-methyl-2-(piperidin-1-yl)pyrimidin-4-yl]-6,9-diphenyl-1-(piperidin-1-yl)-3-azabicyclo[3.2.2]nonane] | 3380 ± 9 | 607 ± 10 |  |  | 16 ± 1.24 | 570 ± 12 |  | 
9 | Cc1cc(N2CC3C(c4ccccc4)CC(N4CCCCC4)(CC3c3ccccc3)C2)nc(N2CCCC2)n1 (racemic) [Compound 19, rac-(7R,8R)-3-[6-methyl-2-(pyrrolidin-1-yl)pyrimidin-4-yl]-6,9-diphenyl-1-(piperidin-1-yl)-3-azabicyclo[3.2.2]nonane] | 3160 ± 1060 | 5290 ± 134 |  |  | 58.4 ± 22.9 | 694 ± 268 |  | 
10 | Cc1cc(N2CCC3(N4CCCCC4)C[C@H](c4ccccc4)C2[C@@H](c2ccccc2)C3)nc(N2CCCCC2)n1 (racemic) [Compound 21, rac-(7R,8R)-2-[6-methyl-2-(piperidin-1-yl)pyrimidin-4-yl]-7,8-diphenyl-5-(piperidin-1-yl)-2-azabicyclo[3.2.2]nonane] | 8720 ± 4200 | 4700 ± 1180 |  |  | 104 ± 27 |  |  | 
11 | Cc1cc(N2CC3C(c4ccccc4)CC(N4CCCCC4)(CC3c3ccccc3)C2)nc(Cl)n1 (racemic) [Compound 15, rac-(7R,8R)-3-(2-chloro-6-methylpyrimidin-4-yl)-6,9-diphenyl-1-(piperidin-1-yl)-3-azabicyclo[3.2.2]nonane] | 9510 ± 914 | 1490 ± 784 |  |  | 27.2 ± 11.8 | 2080 ± 430 |  | 

More lines, main results first:

Row | IC50 [2, 3] [nM] | IC50 (P. falciparum NF54; [4]) [nM] | Structure (SMILES) | IC50 (P. falciparum NF54; NF54, read-out: P. falciparum NF54 IC50) [nM] | IC50 (P. falciparum K1; Plasmodium falciparum, K1, read-out: P. falciparum K1 IC50) [nM] | IC50 at 72 h [1] [µM] | IC50 (P. falciparum K1; [5]) [nM] | IC50 (P. falciparum K1; [6]) [nM] | IC50 [2] [nM]
12 | 1550 ± 47 | 694 ± 18 | Cc1cc(N2CCC3(N4CCCCC4)C[C@H](c4ccccc4)C2[C@@H](c2ccccc2)C3)nc(Cl)n1 (racemic) [Compound 13, rac-(7R,8R)-2-(2-chloro-6-methylpyrimidin-4-yl)-7,8-diphenyl-5-(piperidin-1-yl)-2-azabicyclo[3.2.2]nonane] |  |  | 3.1 ± 0.051 | 567 ± 47 |  | 
13 | 853 ± 16 | 79 ± 1 | Nc1cc(N2CCC3(N4CCCC4)CC(c4ccccc4)C2C(c2ccccc2)C3)nc(N)n1 (racemic) [Compound 10, rac-6-[(7R,8R)-7,8-diphenyl-5-(pyrrolidin-1-yl)-2-azabicyclo[3.2.2]nonan-2-yl]pyrimidine-2,4-diamine] |  |  | 11.26 ± 0.033 | 216 ± 37 |  | 
14 | 161 | 88 ± 57 | Cc1cc(N2CCC3(N4CCCC4)CC(c4ccccc4)C2C(c2ccccc2)C3)nc(N)n1 (racemic) [Compound 6, rac-4-[(7R,8R)-7,8-diphenyl-5-(pyrrolidin-1-yl)-2-azabicyclo[3.2.2]nonan-2-yl]-6-methylpyrimidin-2-amine] |  |  | 12.5 ± 3.31 |  |  | 
15 | 95 ± 32 | 136 ± 16 | Cc1cc(N2CCC3(N4CCCC4)C[C@H](c4ccccc4)C2[C@@H](c2ccccc2)C3)nc(N2CCCC2)n1 (racemic) [Compound 18, rac-(7R,8R)-2-[6-methyl-2-(pyrrolidin-1-yl)pyrimidin-4-yl]-7,8-diphenyl-5-(pyrrolidin-1-yl)-2-azabicyclo[3.2.2]nonane] |  |  | 15.1 ± 0.483 | 59 ± 2 |  | 
16 | 575 ± 33 | 617 ± 8 | Cc1cc(N2CCC3(N4CCCCC4)C[C@H](c4ccccc4)C2[C@@H](c2ccccc2)C3)nc(N2CCCC2)n1 (racemic) [Compound 17, rac-(7R,8R)-2-[6-methyl-2-(pyrrolidin-1-yl)pyrimidin-4-yl]-7,8-diphenyl-5-(piperidin-1-yl)-2-azabicyclo[3.2.2]nonane] |  |  | 23.2 ± 9.93 |  |  | 
17 | 3310 ± 235 | 212 ± 12 | Cc1cc(N2CCC3(N4CCCCC4)CC(c4ccccc4)C2C(c2ccccc2)C3)nc(N)n1 (racemic) [Compound 5, rac-4-[(7R,8R)-7,8-diphenyl-5-(piperidin-1-yl)-2-azabicyclo[3.2.2]nonan-2-yl]-6-methylpyrimidin-2-amine] |  |  | 10.7 ± 1.94 | 140 ± 33 |  | 
18 | 107 ± 49 | 406 ± 15 | Cc1cc(N2CCC3(N4CCCC4)C[C@H](c4ccccc4)C2[C@@H](c2ccccc2)C3)nc(N2CCCCC2)n1 (racemic) [Compound 22, rac-(7R,8R)-2-[6-methyl-2-(piperidin-1-yl)pyrimidin-4-yl]-7,8-diphenyl-5-(pyrrolidin-1-yl)-2-azabicyclo[3.2.2]nonane] |  |  | 6.73 ± 3.08 |  |  | 
19 | 1560 ± 643 | 51 ± 7 | Nc1cc(N2CCC3(N4CCCCC4)CC(c4ccccc4)C2C(c2ccccc2)C3)nc(N)n1 (racemic) [Compound 9, rac-6-[(7R,8R)-7,8-diphenyl-5-(piperidin-1-yl)-2-azabicyclo[3.2.2]nonan-2-yl]pyrimidine-2,4-diamine] |  |  | 9.73 ± 0.661 | 51 to 94 | 94 ± 4 | 
20 | 1640 ± 22 | 1040 ± 302 | Cc1cc(N2CCC3(N4CCCC4)C[C@H](c4ccccc4)C2[C@@H](c2ccccc2)C3)nc(Cl)n1 (racemic) [Compound 14, rac-(7R,8R)-2-(2-chloro-6-methylpyrimidin-4-yl)-7,8-diphenyl-5-(pyrrolidin-1-yl)-2-azabicyclo[3.2.2]nonane] |  |  | 9.62 ± 1.1 | 366 ± 95 |  | 

Reference: article PMC9821907, “Synthesis and Antiprotozoal Activity of Azabicyclo-Nonane Pyrimidine Hybrids” (Molecules, 2022)
